In data set [1] the target is T1, DNA gyrase (Escherichia coli) (UniProt P0AES6+P0AES4). Put plainly: In vivo efficacy against Escherichia coli JUHL after oral administration. It is filed as functional, organism-based. The note with it: Escherichia coli K-12.
Data set [2] deals with T1, DNA gyrase (Escherichia coli). Put plainly: In vivo efficacy against Escherichia coli JUHL by subcutaneous administration. The class given is functional, organism-based. The note with it: Escherichia coli K-12.
A short description of data set [3]: In vivo efficacy against Pseudomonas aeruginosa 5007 after subcutaneous administration. The note with it: Pseudomonas aeruginosa, sc; read-out: ED50. It is filed as functional.
In data set [4] the target is T2, DNA gyrase (Staphylococcus aureus) (UniProt P0A0K8+P20831). Put plainly: In vivo efficacy against Staphylococcus aureus NCTC-10649M after oral administration. The class given is functional, organism-based.
T2 sequence (P0A0K8 2-644 limits assumed): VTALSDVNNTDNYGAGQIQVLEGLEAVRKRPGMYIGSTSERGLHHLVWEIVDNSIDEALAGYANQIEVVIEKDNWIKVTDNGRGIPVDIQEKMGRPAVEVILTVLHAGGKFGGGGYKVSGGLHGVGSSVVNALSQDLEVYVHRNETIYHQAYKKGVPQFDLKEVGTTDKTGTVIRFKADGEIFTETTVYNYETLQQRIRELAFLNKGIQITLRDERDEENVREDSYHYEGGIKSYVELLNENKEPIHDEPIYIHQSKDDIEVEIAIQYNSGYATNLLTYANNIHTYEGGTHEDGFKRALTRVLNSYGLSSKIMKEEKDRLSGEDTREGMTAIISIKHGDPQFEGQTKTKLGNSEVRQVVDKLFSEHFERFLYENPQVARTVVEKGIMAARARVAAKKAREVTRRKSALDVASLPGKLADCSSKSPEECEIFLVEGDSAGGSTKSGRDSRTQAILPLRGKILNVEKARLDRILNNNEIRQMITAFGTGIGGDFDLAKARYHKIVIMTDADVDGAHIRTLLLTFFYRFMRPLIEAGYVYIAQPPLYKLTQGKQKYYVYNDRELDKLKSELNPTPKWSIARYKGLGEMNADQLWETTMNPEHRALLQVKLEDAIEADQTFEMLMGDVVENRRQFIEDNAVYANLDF
T2 sequence (P20831 whole entry partner): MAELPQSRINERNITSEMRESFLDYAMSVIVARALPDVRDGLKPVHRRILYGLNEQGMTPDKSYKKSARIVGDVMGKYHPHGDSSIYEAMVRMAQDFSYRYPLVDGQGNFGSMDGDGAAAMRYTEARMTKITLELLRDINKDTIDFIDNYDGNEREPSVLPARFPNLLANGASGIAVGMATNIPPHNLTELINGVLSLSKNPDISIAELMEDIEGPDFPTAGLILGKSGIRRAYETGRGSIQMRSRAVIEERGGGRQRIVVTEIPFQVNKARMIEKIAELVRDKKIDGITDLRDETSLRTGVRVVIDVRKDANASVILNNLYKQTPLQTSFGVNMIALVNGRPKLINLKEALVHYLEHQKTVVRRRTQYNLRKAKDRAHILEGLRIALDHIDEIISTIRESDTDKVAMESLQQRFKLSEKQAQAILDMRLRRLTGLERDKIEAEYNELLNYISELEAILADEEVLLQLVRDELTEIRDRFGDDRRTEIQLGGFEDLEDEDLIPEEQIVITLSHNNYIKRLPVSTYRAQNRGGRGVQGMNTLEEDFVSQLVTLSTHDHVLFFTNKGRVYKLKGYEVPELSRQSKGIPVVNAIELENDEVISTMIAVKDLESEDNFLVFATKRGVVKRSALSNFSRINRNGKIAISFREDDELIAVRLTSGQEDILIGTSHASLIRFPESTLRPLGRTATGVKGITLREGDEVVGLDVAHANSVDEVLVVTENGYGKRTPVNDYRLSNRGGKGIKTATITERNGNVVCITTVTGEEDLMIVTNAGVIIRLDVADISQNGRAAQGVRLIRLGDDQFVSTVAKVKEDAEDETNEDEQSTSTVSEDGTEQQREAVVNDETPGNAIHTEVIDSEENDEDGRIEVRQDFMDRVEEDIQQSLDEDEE
In data set [5] the target is T2, DNA gyrase (Staphylococcus aureus). Put plainly: In vivo efficacy against Staphylococcus aureus NCTC-10649M after subcutaneous administration. The class given is functional, organism-based.
For data set [6], the system named is Streptococcus pneumoniae. Put plainly: (§1) In vivo efficacy against Strep. administration. The class given is functional.
A short description of a further data set: physchem. The note with it: phosphate buffer, pH 7.4.
The next data set has as its system Pseudomonas aeruginosa. Put plainly: In vivo efficacy against Pseudomonas aeruginosa 5007 following p.o. administration.
Another data set has as its system Enterococcus faecalis. Put plainly: Inhibitory activity against enterococcus faecalis Van B. The class given is functional.
Another data set concerns Enterococcus faecium. Put plainly: Inhibitory activity against enterococcus faecium Van A. It is filed as functional.
Data set [7] is described as follows: In vitro antibacterial activity against gram-negative organism Pseudomonas aeruginosa DPHD-2862. It is filed as functional.
In data set [8] the test system is Streptococcus pneumoniae. Described as §1. The class given is functional. This is another data set of the same source.
The test system of another data set is Streptococcus pyogenes. Put plainly: In vitro antibacterial activity against gram-positive organism Streptococcus pyogenes EES61. The class given is functional.
The nature of data set [9]: Maximum plasma concentration in rats after an oral dose of 5 mg/kg. The note with it: rat.
The target of data set [10] is T1, DNA gyrase (Escherichia coli). Put plainly: In vitro antibacterial activity against gram-negative organism […] ATCC 13048. It is filed as functional. The note with it: Enterobacter aerogenes.
Data set [11] has the same target. Put plainly: In vitro antibacterial against gram-negative organism Escherichia coli JUHL. It is filed as functional. The note with it: Escherichia coli K-12.
For data set [12] the target is unchanged. Put plainly: In vitro antibacterial activity against gram-negative organism Klebsiella pneumoniae ATCC 8045. The class given is functional.
Data set [13] has the same target. Put plainly: In vitro antibacterial activity against gram-negative organism Prov. stuartii CMX-640. The note with it: Providencia stuartii. It is filed as functional.
Data set [14] can be described thus: In vitro antibacterial activity against gram-negative organism Pseudomonas aeruginosa 5007. It is filed as functional. The note with it: Pseudomonas aeruginosa; read-out: MIC.
For data set [15], the target named is T2, DNA gyrase (Staphylococcus aureus). Put plainly: In vitro antibacterial activity against gram-positive organism Staphylococcus aureus 1775. It is filed as functional.
The target is the same in data set [16]. Put plainly: In vitro antibacterial activity against gram-positive organism Staphylococcus aureus ATCC 6538p. It is filed as functional.
Data set [17] has the same target. Put plainly: In vitro antibacterial activity against gram-positive organism Staphylococcus aureus NCTC-10649M. It is filed as functional.
The target in data set [18] is T1, DNA gyrase (Escherichia coli). Put plainly: In vitro antibacterial activity against gram-positive organism Streptococcus bovis A-5169. It is filed as functional. The note with it: Streptococcus equinus.
Data set [19] shares this target. Put plainly: In vitro antibacterial activity against gram-positive organism Enterococcus faecium ATCC 8043. The class given is functional.
The target is the same in data set [20]. The note with it: Escherichia coli K-12.
Description: Concentration which causes 50% of the gyrase (Escherichia coli H560)-mediated maximal DNA cleavage.
Data set [21] is described as follows: in vivo. The note with it: rat, po, 5 mg/kg.
Description: Oral bioavailability in rat (dose 5 mg/kg)
Data set [22] can be described thus: in vivo. The note with it: rat, plasma, po, 5 mg/kg.
The test system of data set [23] is Streptococcus pneumoniae. Put plainly: In vivo efficacy against Strep. administered. The class given is functional.
Setting [24] is: Pseudomonas aeruginosa, read-out: MIC.
Setting [25] is: Streptococcus pyogenes, read-out: MIC.

≈ marks a conversion by molar mass, not a printed value.

Description for physchem: Aqueous solubility in pH 7.4 phosphate buffer (0.05 M) at 37 degree C

As usually defined, the ED50 is the midpoint of the dose-response relation. In general, solubility refers to how much of the substance goes into solution per volume. `CC(NC(=O)C(C)NC1CCN(c2nc3c(-c4ccc(F)cc4F)cc(C(=O)O)c(=O)n3cc2F)C1)C(=O)O` (centres undefined): the median effective dose (ED50) in data set [1] is 14.3 mg/kg; in data set [2] it was under 2.5 mg/kg; in [3] it was 14.8 mg/kg; in data set [4], 3 mg/kg; in data set [5] it was 2.8 mg/kg; with Streptococcus pneumoniae [6], 49.7 mg/kg. For the same compound, the median effective dose (ED50) in the data set with Streptococcus pneumoniae [6] (Streptococcus pneumoniae, read-out: ED50) turned out to be 140 mg/kg; with Pseudomonas aeruginosa, 68.8 mg/kg. Also, in “physchem”, the solubility stood at 1000 µg/mL (≈ 1830 µM).
For `Cc1c(N2C[C@@H]3CCCN[C@@H]3C2)c(F)cn2c(=O)c(C(=O)O)cc(C3CC3)c12` (stereo in doubt; 45n), the MIC turned out to be 0.06 µg/mL (≈ 0.156 µM) against Enterococcus faecalis, 0.5 µg/mL (≈ 1.3 µM) in the data set on Enterococcus faecium, 3.1 µg/mL (≈ 8.04 µM) in [7] and 0.01 µg/mL (≈ 0.0259 µM) with Streptococcus pyogenes. Further, the ED50 turned out to be 4.4 mg/kg with Streptococcus pneumoniae [8] and 12.5 mg/kg in the data set on Streptococcus pneumoniae [6].
As a reminder, the Cmax is the maximum level reached in the sampled fluid or tissue. One may read the bioavailability as dose-corrected exposure relative to a reference, in per cent. A lower bioavailability goes with poor availability. As usually defined, the half-life is how long it takes for the measured level to halve. Take `Cc1c(N2CC[C@@H](N)C2)c(F)cn2c(=O)c(C(=O)O)cc(C3CC3)c12`: the highest level in [9] (Cmax) was 80 ng/mL. Besides, the median effective dose (ED50) was 1 mg/kg in [1]; 0.3 mg/kg in [2]; 2.4 mg/kg in data set [3]; under 3.1 mg/kg in data set [4]; 0.9 mg/kg in data set [5]; 6.2 mg/kg in the data set with Pseudomonas aeruginosa. In addition, the MIC in data set [10] worked out at 0.01 µg/mL (≈ 0.029 µM); in data set [11], 5 ng/mL (≈ 0.0145 µM); in data set [12], 5 ng/mL (≈ 0.0145 µM); in [13], 0.2 µg/mL (≈ 0.579 µM); in [14] it was 0.05 µg/mL (≈ 0.145 µM); in data set [7] (setting [24]), 1.56 µg/mL (≈ 4.52 µM). For the same compound, the MIC in [15] worked out at 1.56 µg/mL (≈ 4.52 µM); in [16] it was 0.01 µg/mL (≈ 0.029 µM); in [17] it was 0.02 µg/mL (≈ 0.0579 µM); in data set [18], 0.1 µg/mL (≈ 0.29 µM); in the data set on Streptococcus pyogenes (setting [25]), 0.05 µg/mL (≈ 0.145 µM); in data set [19], 0.05 µg/mL (≈ 0.145 µM). This compound yielded a CC50 in data set [20] of 0.15 µg/mL (≈ 0.434 µM). The bioavailability in the data set “in vivo [21]” came to 10%. Besides, the half-life in “in vivo [22]” is 66 min.
Turning to `Cc1c(N2C[C@@H](N)[C@@H](C)C2)c(F)cn2c(=O)c(C(=O)O)cc(C3CC3)c12`, the peak level in [9] (Cmax) was 170 ng/mL. In addition, the MIC in data set [10] is 0.02 µg/mL (≈ 0.0556 µM); in data set [11] it was 5 ng/mL (≈ 0.0139 µM); in [12] it was 5 ng/mL (≈ 0.0139 µM); in data set [13], 0.78 µg/mL (≈ 2.17 µM); in data set [14], 0.1 µg/mL (≈ 0.278 µM); in data set [7] (setting [24]), 1.56 µg/mL (≈ 4.34 µM). Besides, the MIC in [15] was 0.78 µg/mL (≈ 2.17 µM); in [16], 0.02 µg/mL (≈ 0.0556 µM); in data set [17], 0.02 µg/mL (≈ 0.0556 µM); in data set [18], 0.02 µg/mL (≈ 0.0556 µM); with Streptococcus pyogenes (setting [25]) it was 0.05 µg/mL (≈ 0.139 µM); in data set [19] it was 0.05 µg/mL (≈ 0.139 µM). Further, the CC50 in data set [20] is 0.06 µg/mL (≈ 0.167 µM). The compound further came in with a bioavailability in “in vivo [21]” of 23%. Besides, the half-life in the data set “in vivo [22]” is 126 min.
On to `Cc1c(N2CC[C@@H]([C@H](C)N)C2)c(F)cn2c(=O)c(C(=O)O)cc(C3CC3)c12`, for which the ED50 in data set [1] was 3.3 mg/kg; in [2], 0.5 mg/kg; in data set [3], 1 mg/kg; in the data set with Streptococcus pneumoniae [23], under 1.3 mg/kg; in data set [4], 7.2 mg/kg; in [5], under 0.2 mg/kg. The ED50 with Streptococcus pneumoniae [6] was under 3.1 mg/kg; in the data set with Pseudomonas aeruginosa, 13 mg/kg. Further, the MIC was 0.01 µg/mL (≈ 0.0268 µM) in [10]; under 1 ng/mL in data set [11]; 5 ng/mL (≈ 0.0134 µM) in [12]; 0.2 µg/mL (≈ 0.536 µM) in data set [13]; 0.05 µg/mL (≈ 0.134 µM) in data set [14]; 1.56 µg/mL (≈ 4.18 µM) in data set [7] (setting [24]). Moreover, the MIC in data set [15] was 0.05 µg/mL (≈ 0.134 µM); in data set [16], under 0.001 µg/mL; in data set [17], under 0.001 µg/mL; in data set [18], under 0.001 µg/mL; in the data set on Streptococcus pyogenes (setting [25]) it was under 0.001 µg/mL; in data set [19], under 0.001 µg/mL. The compound further returned a CC50 in data set [20] of 0.3 µg/mL (≈ 0.803 µM).
